According to ChEMBL document CHEMBL1152604, “Design, synthesis and biological evaluation of tripeptide boronic acid proteasome inhibitors” (Bioorg Med Chem, 2009):

How the values were obtained:
[1] = Inhibition of chymotrypsin-like activity of mouse liver 20S proteasome
[2] = Inhibition of trypsin-like activity of mouse liver 20S proteasome
[3] = Inhibition of peptidylglutamyl peptide-hydrolyzing activity of mouse liver 20S proteasome
HL-60 = assay: Cytotoxicity against human HL60 cells after 72 hrs by MTT assay; type: functional, cell-based; conditions: HL-60, 72 h
U-266 = assay: Cytotoxicity against human U266 cells after 72 hrs by MTT assay; type: functional, cell-based; conditions: U-266, 72 h
BGC-823 = assay: Cytotoxicity against human BGC823 cells after 72 hrs by MTT assay; type: functional, cell-based; conditions: BGC-823, 72 h
BXPC-3 = assay: Cytotoxicity against human BxPC3 cells after 72 hrs by MTT assay; type: functional, cell-based; conditions: BXPC-3, 72 h

| IC50 [1] | IC50 [2] | IC50 [3] | Structure (SMILES) | IC50 (HL-60) | IC50 (U-266) | IC50 (BGC-823) | IC50 (BXPC-3) |
| --- | --- | --- | --- | --- | --- | --- | --- |
| > 20 nM | > 20 nM | > 20 nM | CC(C)C[C@H](NC(=O)c1cnccn1)C(=O)N[C@@H](CC(C)C)C(=O)N[C@H](CC(C)C)B(O)O |  |  |  |  |
| 0.395 nM | > 20 nM | 4.01 nM | CC(C)C[C@@H](NC(=O)[C@H](Cc1ccc(O)cc1)NC(=O)[C@H](Cc1ccccc1)NC(=O)c1cnccn1)B(O)O | 552 nM | 250 nM | 5140 nM | 445 nM |
| 0.19 nM | > 20 nM | 5.14 nM | CC(C)C[C@H](NC(=O)c1cnccn1)C(=O)N[C@@H](Cc1ccccc1)C(=O)N[C@H](CC(C)C)B(O)O |  |  |  |  |
| 0.173 nM | > 20 nM | 5.66 nM | CC(C)C[C@H](NC(=O)[C@H](Cc1ccccc1)NC(=O)c1cnccn1)C(=O)N[C@H](CC(C)C)B(O)O |  |  |  |  |
| 0.402 nM | > 20 nM | 8.33 nM | CC(C)C[C@@H](NC(=O)[C@H](Cc1ccccc1)NC(=O)[C@H](Cc1ccccc1)NC(=O)c1cnccn1)B1O[C@@H]2[C@@H](C[C@H]3C[C@@H]2C3(C)C)O1 |  |  |  |  |
| 0.263 nM | > 20 nM | 2.5 nM | CC(C)C[C@@H](NC(=O)[C@H](Cc1ccccc1)NC(=O)[C@H](Cc1ccc(O)cc1)NC(=O)c1cnccn1)B(O)O | 445 nM | 66.2 nM | 2460 nM | 257 nM |
| 0.443 nM | > 20 nM | > 20 nM | CC(C)C[C@@H](NC(=O)[C@H](Cc1ccc2ccccc2c1)NC(=O)[C@H](Cc1ccccc1)NC(=O)c1cnccn1)B1O[C@@H]2[C@@H](C[C@H]3C[C@@H]2C3(C)C)O1 |  |  |  |  |
| 0.335 nM | > 20 nM | > 20 nM | CC(C)C[C@@H](NC(=O)[C@H](Cc1ccc2ccccc2c1)NC(=O)[C@H](Cc1ccc2ccccc2c1)NC(=O)c1cnccn1)B(O)O | 19.6 nM | 195 nM | 2450 nM | 33.3 nM |
| 0.287 nM | > 20 nM | 2.73 nM | CC(C)C[C@H](NC(=O)[C@H](Cc1ccccc1)NC(=O)c1cnccn1)C(=O)N[C@H](CC(C)C)B1O[C@@H]2[C@@H](C[C@H]3C[C@@H]2C3(C)C)O1 |  |  |  |  |
| > 20 nM | > 20 nM | > 20 nM | CC(C)C[C@@H](NC(=O)[C@H](Cc1ccccc1)NC(=O)[C@H](Cc1c[nH]c2ccccc12)NC(=O)c1cnccn1)B1O[C@@H]2[C@@H](C[C@H]3C[C@@H]2C3(C)C)O1 |  |  |  |  |
| > 20 nM | > 20 nM | > 20 nM | CC(C)C[C@@H](NC(=O)[C@H](Cc1ccccc1)NC(=O)[C@H](Cc1c[nH]c2ccccc12)NC(=O)c1cnccn1)B(O)O |  |  |  |  |
| 0.111 nM | > 20 nM | 3.8 nM | CC(C)C[C@@H](NC(=O)[C@H](Cc1ccc2ccccc2c1)NC(=O)[C@H](Cc1ccccc1)NC(=O)c1cnccn1)B(O)O | 7.4 nM | 15.8 nM | 1040 nM | 28.7 nM |
| 0.335 nM | > 20 nM | 5.39 nM | CC(C)C[C@@H](NC(=O)C(Cc1ccc(O)cc1)NC(=O)[C@H](Cc1ccccc1)NC(=O)c1cnccn1)B1O[C@@H]2[C@@H](C[C@H]3C[C@@H]2C3(C)C)O1 (some centres undefined) |  |  |  |  |
| 0.22 nM | > 20 nM | > 20 nM | CC(C)C[C@@H](NC(=O)[C@H](Cc1ccccc1)NC(=O)[C@H](Cc1ccc2ccccc2c1)NC(=O)c1cnccn1)B1O[C@@H]2[C@@H](C[C@H]3C[C@@H]2C3(C)C)O1 |  |  |  |  |
| 0.417 nM | > 20 nM | 4.43 nM | CC(C)C[C@@H](NC(=O)[C@H](Cc1ccccc1)NC(=O)[C@H](Cc1ccc2ccccc2c1)NC(=O)c1cnccn1)B(O)O | 10 nM | 53 nM | 2800 nM | 31.8 nM |
| > 20 nM | > 20 nM | > 20 nM | CC(C)C[C@H](NC(=O)c1cnccn1)C(=O)N[C@@H](CC(C)C)C(=O)N[C@H](CC(C)C)B1O[C@@H]2[C@@H](C[C@H]3C[C@@H]2C3(C)C)O1 |  |  |  |  |
| 0.345 nM | > 20 nM | 14.1 nM | CC(C)C[C@H](NC(=O)[C@H](Cc1ccc2ccccc2c1)NC(=O)c1cnccn1)C(=O)N[C@H](CC(C)C)B1O[C@@H]2[C@@H](C[C@H]3C[C@@H]2C3(C)C)O1 |  |  |  |  |
| 0.295 nM | > 20 nM | 4.76 nM | CC(C)C[C@@H](NC(=O)[C@H](Cc1ccccc1)NC(=O)[C@H](Cc1ccc(O)cc1)NC(=O)c1cnccn1)B1O[C@@H]2[C@@H](C[C@H]3C[C@@H]2C3(C)C)O1 |  |  |  |  |
| 0.431 nM | > 20 nM | 3.4 nM | CC(C)C[C@H](NC(=O)c1cnccn1)C(=O)N[C@@H](Cc1ccccc1)C(=O)N[C@H](CC(C)C)B1O[C@@H]2[C@@H](C[C@H]3C[C@@H]2C3(C)C)O1 |  |  |  |  |
| 0.22 nM | > 20 nM | 12.8 nM | CC(C)C[C@H](NC(=O)[C@H](Cc1ccc2ccccc2c1)NC(=O)c1cnccn1)C(=O)N[C@H](CC(C)C)B(O)O | 15 nM | 120 nM | 1720 nM | 43.5 nM |
| 0.546 nM | > 20 nM | 10.9 nM | CC(C)C[C@@H](NC(=O)[C@H](Cc1ccccc1)NC(=O)[C@H](Cc1ccccc1)NC(=O)c1cnccn1)B(O)O |  |  |  |  |
| 0.079 nM | > 20 nM | 3.63 nM | CC(C)C[C@H](NC(=O)c1cnccn1)C(=O)N[C@@H](Cc1ccc2ccccc2c1)C(=O)N[C@H](CC(C)C)B(O)O | 4.6 nM | 9.9 nM | 600 nM | 21.2 nM |
| 0.37 nM | > 20 nM | 3.91 nM | CC(C)C[C@H](NC(=O)c1cnccn1)C(=O)N[C@@H](Cc1ccc2ccccc2c1)C(=O)N[C@H](CC(C)C)B1O[C@@H]2[C@@H](C[C@H]3C[C@@H]2C3(C)C)O1 |  |  |  |  |
| > 20 nM | > 20 nM | > 20 nM | CC(C)C[C@@H](NC(=O)[C@H](Cc1c[nH]c2ccccc12)NC(=O)[C@H](Cc1ccccc1)NC(=O)c1cnccn1)B(O)O |  |  |  |  |
| > 20 nM | > 20 nM | > 20 nM | CC(C)C[C@@H](NC(=O)[C@H](Cc1c[nH]c2ccccc12)NC(=O)[C@H](Cc1ccccc1)NC(=O)c1cnccn1)B1O[C@@H]2[C@@H](C[C@H]3C[C@@H]2C3(C)C)O1 |  |  |  |  |
| 0.495 nM | > 20 nM | > 20 nM | CC(C)C[C@@H](NC(=O)[C@H](Cc1ccc2ccccc2c1)NC(=O)[C@H](Cc1ccc2ccccc2c1)NC(=O)c1cnccn1)B1O[C@@H]2[C@@H](C[C@H]3C[C@@H]2C3(C)C)O1 |  |  |  |  |
| 0.161 nM | > 20 nM | > 20 nM | CC(C)C[C@H](NC(=O)[C@H](Cc1ccccc1)NC(=O)c1cnccn1)B(O)O [BORTEZOMIB] |  |  |  |  |
